ChEMBL document CHEMBL3352071, “Benzimidazoles: novel mycobacterial gyrase inhibitors from scaffold morphing” (ACS Med Chem Lett, 2014)
Values after ≈ are worked out from the molar mass of the structure shown.

Assays:
Assay type in all cases: functional
[1] = system: Mycobacterium tuberculosis; assay: Antimicrobial activity against 2-oxo-1-(2-(4-((3-oxo-3,4-dihydro-2H-pyrido[3,2-b][1,4]oxazin-6-yl)methylamino)piperidin-1-yl)ethyl)-1,2-dihydroquinoline-7-carbonitrile resistant Mycobacterium tuberculosis H37Rv ATCC 27294 containing DNA gyrase A74V mutant
[2] = system: Mycobacterium tuberculosis; assay: Antimicrobial activity against moxicillin resistant Mycobacterium tuberculosis H37Rv ATCC 27294 containing DNA gyrase G88N mutant
[3] = system: Mycobacterium tuberculosis; assay: Antimicrobial activity against 5-(((3S,4R)-3-fluoro-1-(2-(7-methoxy-2-oxo-1,5-naphthyridin-1(2H)-yl)ethyl)piperidin-4-ylamino)methyl)-2-methylnicotinonitrile resistant Mycobacterium tuberculosis H37Rv ATCC 27294 containing DNA gyrase D89N mutant

Compound	MIC [1] [µM]	MIC [2] [µM]	MIC [3] [µM]
N#Cc1ccc2ccc(=O)n(CCN3CCC(NCc4ccc5c(n4)NC(=O)CO5)CC3)c2c1	4 (≈ 1.83 µg/mL)	<0.19	>100
COc1cnc2ccc(=O)n(CCN3CCC(c4nc5cc(C(F)(F)F)ccc5[nH]4)CC3)c2c1	50 (≈ 23.6 µg/mL)	0.78 (≈ 0.368 µg/mL)	25 (≈ 11.8 µg/mL)
COc1cnc2ccc(=O)n(CCN3CCC(c4nc5cc(Cl)c(F)cc5[nH]4)CC3)c2c1	100 (≈ 45.6 µg/mL)	0.06 (≈ 0.0274 µg/mL)	25 (≈ 11.4 µg/mL)
COc1cnc2ccc(=O)n(CCN3CCC(c4nc5cc(C#N)c(C)cc5[nH]4)CC3)c2c1	>100	0.78 (≈ 0.345 µg/mL)	100 (≈ 44.3 µg/mL)
COc1cnc2ccc(=O)n(CCN3CCN(c4nc5cc(C#N)c(C)cc5[nH]4)CC3)c2c1	>100	1.56 (≈ 0.692 µg/mL)	100 (≈ 44.4 µg/mL)
NS(=O)(=O)c1ccc(Oc2cnc3ccc(=O)n(CCN4CCC(c5nc6cc(C(F)(F)F)ccc6[nH]5)CC4)c3c2)cc1	25 (≈ 15.3 µg/mL)	0.39 (≈ 0.239 µg/mL)	12.5 (≈ 7.66 µg/mL)
O=c1ccc2ncc(F)cc2n1CCN1CCC(NCc2ccc(C(F)(F)F)nc2)CC1	2 (≈ 0.899 µg/mL)	<0.19	>100
O=C(O)c1cn(C2CC2)c2cc(N3CCNCC3)c(F)cc2c1=O [CIPROFLOXACIN]	0.5 (≈ 0.166 µg/mL)	8 (≈ 2.65 µg/mL)	16 (≈ 5.3 µg/mL)
NNC(=O)c1ccncc1 [ISONIAZID]	0.06 (≈ 0.00823 µg/mL)	0.06 (≈ 0.00823 µg/mL)	0.03 (≈ 0.00411 µg/mL)
COc1c(N2C[C@@H]3CCCN[C@@H]3C2)c(F)cc2c(=O)c(C(=O)O)cn(C3CC3)c12 [MOXIFLOXACIN]	0.25 (≈ 0.1 µg/mL)	4 (≈ 1.61 µg/mL)	2 (≈ 0.803 µg/mL)
CO[C@H]1/C=C/O[C@@]2(C)Oc3c(C)c(O)c4c(O)c(c(/C=N/N5CCN(C)CC5)c(O)c4c3C2=O)NC(=O)/C(C)=C\C=C\[C@H](C)[C@H](O)[C@@H](C)[C@@H](O)[C@@H](C)[C@H](OC(C)=O)[C@@H]1C [RIFAMPIN]	0.008 (≈ 0.00658 µg/mL)	0.008 (≈ 0.00658 µg/mL)	
